# Test results reported in US11925632B2, “Isoquinoline derivatives for use in treating GLUT1 deficiency syndrome” (GLIAPHARM SA, priority 2019, dated 2024).
# How the values were obtained:
# primary mouse astrocytes = experiment: Extracellular lactate quantification (lactate release from primary astrocytes); assay type: cell-based
# Experimental: Primary cultures of cerebrocortical astrocytes were obtained from 1 to 2-day-old OF1 mouse pups (Charles River). Briefly, cortices were isolated and minced in small pieces under a dissecting microscope. The cells were incubated for 30 min at 37° C. in a solution containing 20 U/ml papain, 1 mM L-cysteine and 10 kU/ml DNase I. After dissociation, papain activity was stopped by the addition of fetal calf serum (FCS). Single-cell suspension was then obtained by mechanical dissociation, which consisted in cells trituration in a DMEM D7777 medium supplemented with 44 mm NaHCO3, 10 ml/L antibiotic/antimycotic solution and 10% FCS. The cells were seeded at an average density of ˜10′000 cells/cm^2 on poly-D-lysine coated 96- or 12-well culture plates, depending on their use, and grown in DMEM D7777 medium supplemented with 44 mm NaHCO3, 10 ml/L antibiotic/antimycotic solution and 10% FCS at 37° C. in a humidified atmosphere containing 5% CO2/95% air. Culture medium was renewed twice a week. Cells were stimulated and harvested between DIV14 and DIV17, when confluence and cell growth were optimal.
# Secretion of L-lactate was measured in the extracellular medium of 96-well plated astrocytes after 90 min stimulation (at 37° C., in 5% CO2/95% air conditions) with Vehicle (DMSO), the compounds of the invention (100 nM to 100 μM) or positive control. […] Stimulation medium was composed of D5030 medium complemented with 5 mM D-glucose and 44 mM sodium bicarbonate, pH 7.2. To quantify lactate concentrations in the extracellular medium, 200 μl of a 0.2M Glycine-semicarbazide buffer (pH 10) containing 3 mM NAD and 14 U/ml LDH was added to each well of a 96-well plate containing 30 μl aliquots of extracellular medium. Samples were incubated at 37° C. for 1 h. Fluorescence intensity (340 nm excitation/450 nm emission), which represents the amount of NADH produced, was measured, and lactate concentration values were determined relative to a standard curve of L-lactate concentrations.
# The release of lactate from primary mouse astrocytes treated with compound (1) at 10 μM was quantified by (FIG. 1). Accumulation of lactate in the extracellular medium was measured over a period of 1.5 h. […] Maximal effects of the compounds were 38.6% (1), 38% (2), 31% (4) and 76% (3) when compared to the effect of the positive control (100%) for compounds (1) to (4), respectively.
# [1] = test system: G93A SOD1 transgenic mice; experiment: SOD1 G93A mouse ALS model (grip test, survival); assay type: in vivo
# Experimental: For pharmacodynamics (FIG. 5) and cognition (FIG. 7) experiments, adult male C57Bl/6J wild-type mice weighting 18-28 g (8 weeks of age) were used (Charles River). For ALS mouse models (FIG. 6), G93A SOD1 transgenic male and female mice on B6.SJL1-Gur/J background were used (Jackson Laboratory).
# Animals were housed in groups of 3-5 in polypropylene cages (30×40×15 cm) with wire mesh top in a temperature (22±2° C.) and humidity (55±15%) controlled environment on a 12 hour light cycle (07.00-19.00 h lights on), except after surgeries when animal were housed individually. […]
# Transgenic mice on B6.SJL1-Gur/J background overexpressing the human mutated gene G93A SOD1 were used. […] F1 pups were genotyped after ear punching at weaning, using quantitative PCR (qPCR), which allowed determining the number of SOD1 copies in each mouse. […] Each mouse's weight was recorded every day throughout the entire treatment, while neuromuscular function was measured once a week. […]
# The experiment was conducted in a room with a low light intensity (30 lux) to reduce stressful environment. […] Mice ability to grip the grid (time [s]) was measured in order to assess for their muscle strength and coordination. […]
# GLUT1-DS mice = experiment: Rotarod motor function in GLUT1-DS transgenic mice; assay type: in vivo, mouse; settings: 10 mg/kg oral daily for 19 days
# Experimental: Transgenic mice on 129/SvJ genetic background in which GLUT1 has been knocked-down (GLUT1-DS mice) were used (Wang et al., […], Human Molecular Genetics, 15(7)). Mating colonies were composed of wild-type female mice and GLUT1-DS male mice, or GLUT1-DS female mice and wild-type male mice. F1 pups were genotyped after ear punching at weaning using PCR to determine genotype. Mice of 2 to 3 months of age were used.
# Motor function was measured in wild-type (WT) and GLUT1-DS transgenic mice in the rotarod after 19-day long treatment with Veh. or Compound (1). Mice were administered every day orally vehicle or Compound (1) at a dose of 10 mg/kg. After 14 days of treatment, mice were exposed to rotarod training, which consisted in placing the mouse on an accelerating rotarod (4 to 40 r.p.m.) during 300 seconds. Mice that felt down before training ended, or at the end of training (300 seconds), were removed and put back to their cages. Training took place over 4 consecutive days, and on each training day mice performed 3 consecutive trials with 15 min inter-trial duration. One day after the last training (on the fifth day), mice were tested on the rotarod. Testing consisted in placing mice on the rotarod at a constant speed of 25 r.p.m. Latencies of mice before falling down were recorded.
compound,measurement,setting,value
"COc1cc2ccnc(Nc3ccc(OC(F)(F)F)cc3)c2cc1OC [Example 1, 6,7-dimethoxy-N-(4-(trifluoromethoxy)phenyl)isoquinolin-1-amine]",EC50,"primary mouse astrocytes; Astrocyte, 1.5 h, primary mouse astrocytes, 90 min stimulation, read-out: EC50 of astrocyte-mediated lactate secretion",7.02 µM
same,Emax,"primary mouse astrocytes; Mus musculus, Astrocyte, 1.5 h, positive control CCCP 2 μM, 90 min, read-out: Maximal effect on lactate secretion compared to the effect of the positive control (100%)",38.6%
same,Concentration at which effect on lactate release is already significant,"primary mouse astrocytes; primary mouse astrocytes, 90 min",below 1 μM
same,"Muscle function (grip test), onset of symptoms","[1]; 10 mg/kg oral daily from post-natal day 30, measured weekly until 16 weeks of age",delayed the onset of the symptoms
same,"Survival (life span, Kaplan-Meier)","[1]; 10 mg/kg oral daily from post-natal day 30, vs vehicle",significantly increased life span
same,"Rotarod performance (latency before falling, 25 r.p.m.)",GLUT1-DS mice,increased rotarod performance
